Laboratory results as given in patent publication US20030176314A1, “Compounds for the treatment of pain” (priority 2001, published 2003).
Counter-ions that a name gives are not always drawn. One block for each compound: values may come before it.

Legend:
[1] = target: N-methyl-D-aspartate (NMDA) receptor channel complex; assay: Binding at native NMDA receptor channels; set-up: species or system rat; details: Table 8
Procedure: NMDA Receptor Channels: The methods to determine binding affinity at native N-methyl-D-aspartate (NMDA) receptor channels are described in Wong E. H. et al. (1988), the disclosure of which is hereby incorporated by reference in its entirety into this application.
(§1) The binding affinity (Ki) of these compounds were tested according to the protocols described herein at the following receptors; human α1A, α1B, α1D, α2A, α2B, and α2C adrenergic receptors; human Y1, Y2, Y4, and Y5 receptors; and N-Methyl-D-aspartic acid (NMDA) receptor channels. The binding interactions of these compounds were additionally tested at the norepinephrine (NE) transporter (NE uptake) and serotonin (5-hydroxytryptamine (5HT)) transporter (5HT uptake) according to protocols described herein

[2] = target: T1, human α2A adrenergic receptor (Homo sapiens, UniProt P08913); assay: Binding at human α2A adrenergic receptor; details: Table 8; read-out: hα2A Ki
T1 construct: host or cells: LM(tk-) cells, line L-α2A
T1 sequence (P08913 1-465): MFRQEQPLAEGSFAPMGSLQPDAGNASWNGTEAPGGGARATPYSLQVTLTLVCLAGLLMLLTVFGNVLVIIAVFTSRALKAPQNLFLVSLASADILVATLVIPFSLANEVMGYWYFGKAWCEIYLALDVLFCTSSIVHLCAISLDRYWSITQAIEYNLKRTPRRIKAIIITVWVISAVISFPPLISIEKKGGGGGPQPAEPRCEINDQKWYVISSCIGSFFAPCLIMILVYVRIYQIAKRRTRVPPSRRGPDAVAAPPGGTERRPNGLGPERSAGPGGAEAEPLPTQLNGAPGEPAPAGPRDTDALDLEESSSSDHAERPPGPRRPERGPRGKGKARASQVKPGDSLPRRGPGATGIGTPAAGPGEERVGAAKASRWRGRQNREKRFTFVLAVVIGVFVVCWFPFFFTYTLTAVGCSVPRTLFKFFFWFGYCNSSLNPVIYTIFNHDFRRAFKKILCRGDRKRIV
From the text: (§2) α2 Human Adrenergic Receptors: To determine the binding of compounds to human α2 receptors, LM(tk−) cell lines stably transfected with the genes encoding the α2A, α2B, and α2C receptors were used. The cell line expressing the α2A receptor is designated L-α2A, and was deposited on Nov. 6, 1992, under ATCC Accession No. CRL 11180. The cell line expressing the α2B receptor is designated L-NGC-α2B, and was deposited on Oct. 25, 1989, under ATCC Accession No. CRL 10275. The cell line expressing the α2C receptor is designated L-α2C, and was deposited on Nov. 6, 1992, under ATCC Accession No. CRL-11181. Cell lysates were prepared as described herin, and suspended in 25 mM glycyiglycine buffer (pH 7.6 at room temperature). Equilibrium competition binding assay were performed using […] (0.5 nM), and nonspecific binding was determined by incubation with 10 μM phentolamine. The bound radioligand was separated by filtration through GF/B filters using a cell harvester.
as §1

[3] = target: T2, rat NPFF2 receptor (Rattus norvegicus, UniProt Q9EQD2); assay: Functional assay (agonist potency, intrinsic activity) at cloned rat NPFF2 receptor; format: cell-based; details: Table 7, intrinsic activity
T2 construct: The full-length NPFF2 was amplified from rat spinal cord cDNA; expressed in transfected cells; host or cells: not given
T2 sequence (Q9EQD2 whole entry): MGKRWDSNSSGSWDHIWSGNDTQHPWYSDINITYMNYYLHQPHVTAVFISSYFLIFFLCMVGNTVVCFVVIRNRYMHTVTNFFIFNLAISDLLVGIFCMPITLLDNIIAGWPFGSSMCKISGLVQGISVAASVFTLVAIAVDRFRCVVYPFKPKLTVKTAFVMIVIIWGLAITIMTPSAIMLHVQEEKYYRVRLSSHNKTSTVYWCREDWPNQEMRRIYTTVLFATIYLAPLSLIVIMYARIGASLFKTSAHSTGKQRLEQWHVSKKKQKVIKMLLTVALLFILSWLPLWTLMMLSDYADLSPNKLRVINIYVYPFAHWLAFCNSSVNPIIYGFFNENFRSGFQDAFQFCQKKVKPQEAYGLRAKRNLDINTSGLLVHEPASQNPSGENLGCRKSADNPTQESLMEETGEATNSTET

[4] = target: T3, human α2C adrenergic receptor (Homo sapiens, UniProt P18825); assay: Binding at human α2C adrenergic receptor; details: Table 8; read-out: hα2C Ki
T3 construct: host or cells: LM(tk-) cells, line L-α2C
T3 sequence (P18825 1-462): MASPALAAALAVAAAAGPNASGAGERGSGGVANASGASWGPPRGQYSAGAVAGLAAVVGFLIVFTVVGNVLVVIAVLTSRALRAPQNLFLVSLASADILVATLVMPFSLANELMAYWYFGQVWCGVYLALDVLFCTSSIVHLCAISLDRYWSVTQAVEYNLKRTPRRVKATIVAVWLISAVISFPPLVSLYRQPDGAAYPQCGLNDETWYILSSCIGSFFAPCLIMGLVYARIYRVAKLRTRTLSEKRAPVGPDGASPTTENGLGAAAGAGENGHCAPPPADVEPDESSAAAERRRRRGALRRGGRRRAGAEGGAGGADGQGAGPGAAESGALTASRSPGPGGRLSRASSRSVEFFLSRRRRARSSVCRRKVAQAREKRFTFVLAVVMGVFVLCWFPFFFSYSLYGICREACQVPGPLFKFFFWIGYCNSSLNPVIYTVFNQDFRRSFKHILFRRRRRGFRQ
From the text: as §2, §1

[5] = target: T4, human α2B adrenergic receptor (Homo sapiens, UniProt P18089); assay: Binding at human α2B adrenergic receptor; details: Table 8; read-out: hα2B Ki
T4 construct: host or cells: LM(tk-) cells, line L-NGC-α2B
T4 sequence (P18089 1-450): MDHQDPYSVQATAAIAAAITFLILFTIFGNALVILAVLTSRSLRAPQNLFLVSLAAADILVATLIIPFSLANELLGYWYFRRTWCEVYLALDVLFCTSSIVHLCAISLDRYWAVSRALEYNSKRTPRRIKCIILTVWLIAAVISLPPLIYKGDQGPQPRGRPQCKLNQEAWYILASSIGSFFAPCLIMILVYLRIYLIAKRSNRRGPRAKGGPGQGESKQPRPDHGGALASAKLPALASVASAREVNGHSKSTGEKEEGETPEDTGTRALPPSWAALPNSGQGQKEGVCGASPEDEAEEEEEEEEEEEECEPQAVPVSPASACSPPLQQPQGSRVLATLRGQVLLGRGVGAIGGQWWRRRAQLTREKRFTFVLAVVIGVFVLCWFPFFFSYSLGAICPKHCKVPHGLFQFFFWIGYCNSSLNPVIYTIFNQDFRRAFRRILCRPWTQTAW
From the text: as §2, §1

[6] = target: T5, norepinephrine (NE) transporter (Rattus norvegicus, UniProt Q63380); assay: Binding at native norepinephrine transporter (NE uptake); details: Table 8
T5 construct: evaluated at native, tissue-derived transporters; from tissue
T5 sequence (Q63380 1-617): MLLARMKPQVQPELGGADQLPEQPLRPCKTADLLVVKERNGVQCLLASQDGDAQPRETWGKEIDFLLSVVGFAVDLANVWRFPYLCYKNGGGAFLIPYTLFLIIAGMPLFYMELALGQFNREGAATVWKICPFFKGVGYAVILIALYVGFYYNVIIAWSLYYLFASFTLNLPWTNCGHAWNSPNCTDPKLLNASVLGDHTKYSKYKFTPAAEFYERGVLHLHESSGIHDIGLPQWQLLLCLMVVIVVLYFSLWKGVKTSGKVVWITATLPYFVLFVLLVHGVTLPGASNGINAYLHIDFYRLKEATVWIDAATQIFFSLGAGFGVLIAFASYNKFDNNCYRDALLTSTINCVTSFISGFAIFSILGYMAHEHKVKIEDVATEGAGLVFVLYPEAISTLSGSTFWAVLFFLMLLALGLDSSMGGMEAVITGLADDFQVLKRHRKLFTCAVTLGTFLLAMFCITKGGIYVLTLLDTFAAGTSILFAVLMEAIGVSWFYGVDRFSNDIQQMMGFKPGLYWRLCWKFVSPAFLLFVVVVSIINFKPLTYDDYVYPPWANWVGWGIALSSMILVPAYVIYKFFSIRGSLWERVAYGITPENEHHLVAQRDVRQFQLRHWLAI
Procedure: (§3) Transporters: The binding properties of compounds were evaluated at native, tissue-derived transporters, namely serotonin (5HT) transporter and norepinephrine (NE) transporter, according to protocols described in Owens (1997), the disclosure of which is hereby incorporated by reference in its entirety into this application.
as §1

[7] = target: T6, serotonin (5HT) transporter (Rattus norvegicus, UniProt P31652); assay: Binding at native serotonin transporter (5HT uptake); details: Table 8
T6 construct: evaluated at native, tissue-derived transporters; from tissue
T6 sequence (P31652 whole entry): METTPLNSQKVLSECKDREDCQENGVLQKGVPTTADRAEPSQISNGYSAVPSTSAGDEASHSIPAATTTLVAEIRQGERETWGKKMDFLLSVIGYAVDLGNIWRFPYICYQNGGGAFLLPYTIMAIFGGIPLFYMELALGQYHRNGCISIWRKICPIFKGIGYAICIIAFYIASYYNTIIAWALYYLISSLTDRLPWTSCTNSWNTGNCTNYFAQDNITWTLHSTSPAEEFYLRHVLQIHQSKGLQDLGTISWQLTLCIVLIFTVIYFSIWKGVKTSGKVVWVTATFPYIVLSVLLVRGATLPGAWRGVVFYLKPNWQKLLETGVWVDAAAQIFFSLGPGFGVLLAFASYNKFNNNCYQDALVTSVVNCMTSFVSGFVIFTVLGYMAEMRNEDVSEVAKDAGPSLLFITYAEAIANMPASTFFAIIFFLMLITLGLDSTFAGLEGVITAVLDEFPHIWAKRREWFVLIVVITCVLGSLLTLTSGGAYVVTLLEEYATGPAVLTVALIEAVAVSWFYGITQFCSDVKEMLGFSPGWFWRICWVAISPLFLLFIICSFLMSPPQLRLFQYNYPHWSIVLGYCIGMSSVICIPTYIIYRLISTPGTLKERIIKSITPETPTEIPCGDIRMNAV
Procedure: as §3, §1

[8] = target: T7, rat NPFF1 receptor (Rattus norvegicus, UniProt Q9EP86); assay: Functional assay (agonist potency, intrinsic activity) at cloned rat NPFF1 receptor; format: cell-based; details: Table 7, intrinsic activity
T7 construct: expressed in transfected cells; host or cells: not given
T7 sequence (Q9EP86 whole entry): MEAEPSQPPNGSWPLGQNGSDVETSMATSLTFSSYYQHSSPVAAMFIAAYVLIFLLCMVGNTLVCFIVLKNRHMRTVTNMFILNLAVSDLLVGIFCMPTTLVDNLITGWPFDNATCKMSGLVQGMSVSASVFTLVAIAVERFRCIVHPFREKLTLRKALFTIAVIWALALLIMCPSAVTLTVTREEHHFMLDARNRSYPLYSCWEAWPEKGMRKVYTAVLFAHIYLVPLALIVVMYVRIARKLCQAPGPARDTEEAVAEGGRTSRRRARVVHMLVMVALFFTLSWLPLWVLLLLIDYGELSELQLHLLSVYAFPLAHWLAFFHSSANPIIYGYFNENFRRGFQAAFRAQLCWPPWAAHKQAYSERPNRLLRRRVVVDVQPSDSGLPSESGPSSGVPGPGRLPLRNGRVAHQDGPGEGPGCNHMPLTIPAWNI

[9] = target: T8, human NPFF2 receptor (Homo sapiens, UniProt Q9Y5X5); assay: Functional assay (agonist potency, intrinsic activity) at cloned human NPFF2 receptor; format: cell-based; details: Table 6, intrinsic activity
T8 construct: one of these, B089, was determined to be a full length clone with no point mutations; expressed in transfected cells; host or cells: not given
T8 sequence (Q9Y5X5 103-522): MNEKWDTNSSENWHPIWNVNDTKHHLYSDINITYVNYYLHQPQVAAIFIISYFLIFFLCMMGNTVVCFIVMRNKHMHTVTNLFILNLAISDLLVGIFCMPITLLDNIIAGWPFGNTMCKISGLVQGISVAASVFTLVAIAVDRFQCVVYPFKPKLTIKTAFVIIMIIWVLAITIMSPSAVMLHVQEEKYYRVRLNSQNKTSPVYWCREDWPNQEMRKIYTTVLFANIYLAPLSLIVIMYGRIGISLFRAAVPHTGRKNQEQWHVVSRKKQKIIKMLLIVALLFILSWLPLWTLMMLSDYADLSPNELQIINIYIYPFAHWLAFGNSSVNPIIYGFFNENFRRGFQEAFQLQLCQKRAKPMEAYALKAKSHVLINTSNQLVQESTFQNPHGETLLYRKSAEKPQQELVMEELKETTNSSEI

[10] = tested on: distension induced contractions of the rat bladder; assay: Distension-induced rhythmic contraction (DIRC) model, micturition reflex in anesthetized rats; format: in vivo
From the text: This model is widely considered to be predictive for the actions of drugs to treat human urge incontinence (also refered to as detrusor instability or unstable bladder). Examples of drugs that are active in this model which also are used therapeutically in humans include oxybutynin and baclofen (Morikawa et al, 1992); imipramine and nortriptyline (Pietra et al, 1990); and nifedipine and terodiline (Guarneri et al, 1993).
Female Sprague Dawley rats weighing approximately 300 g were anesthetized with subcutaneous urethane (1.2 g/kg). The trachea was cannulated with PE240 tubing to provide a clear airway throughout the experiment. A midline abdominal incision was made and the left and right ureters were isolated. The ureters were ligated distally (to prevent escape of fluids from the bladder) and cannulated proximally with PE10 tubing. The incision was closed using 4-0 silk sutures, leaving the PE10 lines routed to the exterior for the elimination of urine. The bladder was canulated via the transurethral route using PE50 tubing inserted 2.5 cm beyond the urethral opening. This cannula was secured to the tail using tape and connected to a pressure transducer. To prevent leakage from the bladder, the cannula was tied tightly to the exterior urethral opening using 4-0 silk.
To initiate the micturition reflex, the bladder was first emptied by applying pressure to the lower abdomen, and then filled with normal saline in 100 μl increments (maximum=2 ml) until spontaneous bladder contractions occurred (typically 20-40 mmHg at a rate of one contraction every 2 to 3 minutes. Once a regular rhythm was established, vehicle (saline) or test compounds were administered i.v. to examine their effects on bladder activity. The effect of a compound which inhibited the micturition reflex was expressed as its “disappearance time”, defined as the time between successive bladder contractions in the presence of the test compound minus the time between contractions before compound administration.

[11] = tested on: distension induced contractions of the rat bladder; details: drugs used therapeutically in humans, from publications; cited from earlier work

Structure (SMILES): CCc1ccc2c(C)nc(NC(=N)N)nc2c1 [Compound 1020A, N-(7-ethyl-4-methyl-2-quinazolinyl)guanidine]
Ki [6]: 8.02 µM | Ki [2]: 1.17 µM | rNPFF2 IA [3]: 90% NPFF | Ki [4]: 4.13 µM | Ki [7]: 5.59 µM | Ki [5]: 20.9 µM

Structure (SMILES): CCCCCc1ccc2nc(NC(=N)N)nc(C)c2c1 [Compound 2001A, N-(4-methyl-6-pentyl-2-quinazolinyl)guanidine]
rNPFF1 IA [8]: 71% NPFF | Ki [1]: 8.13 µM | Ki [6]: 1.16 µM | Ki [2]: 0.808 µM | rNPFF2 IA [3]: 103% NPFF | hNPFF2 IA [9]: 84% NPFF | Ki [4]: 1.91 µM | Ki [7]: 0.962 µM | Ki [5]: 7.41 µM

Structure (SMILES): Cc1ccc2c(C)cc(NC(=N)N)nc2c1 [Compound 4006A, N-(4,7-dimethyl-2-quinolinyl)guanidine]
inhibition of distention induced contractions of the rat bladder ([10]; 3 mg/kg, i.v.): complete inhibition | time for which inhibition of bladder activity persisted ([10]; i.v. administration, anesthetized rat (figure legends)): 12 min | Ki [6]: 12.4 µM | rNPFF2 IA [3]: 32% NPFF | Ki [7]: 8.79 µM

Structure (SMILES): NCC(CC(=O)O)c1ccc(Cl)cc1 (stereo not drawn) [baclofen]
activity in the DIRC model [11]: active

Structure (SMILES): CN(C)CCCN1c2ccccc2CCc2ccccc21 [imipramine]
activity in the DIRC model [11]: active

Structure (SMILES): CNCCC=C1c2ccccc2CCc2ccccc21 [nortriptyline]
activity in the DIRC model [11]: active

Structure (SMILES): CCN(CC)CC#CCOC(=O)C(O)(c1ccccc1)C1CCCCC1 (stereo not drawn) [oxybutynin]
activity in the DIRC model [11]: active

Structure (SMILES): CC(CC(c1ccccc1)c1ccccc1)NC(C)(C)C (stereo not drawn) [terodiline]
activity in the DIRC model [11]: active

Other lines, results leading:

melting point: 215 to 217 °C (dec.)
Structure (SMILES): Cc1nc(NC(=N)N)nc2cc(OCc3ccccc3)ccc12 (as salt: salt) [Compound 1006A, N-[7-(benzyloxy)-4-methyl-2-quinazolinyl]guanidine]

melting point: 246 to 248 °C (dec.)
Structure (SMILES): Cc1cc2nc(NC(=N)N)nc(C)c2cc1O (as salt: salt) [Compound 1017A, N-(6-hydroxy-4,7-dimethyl-2-quinazolinyl)guanidine]

Ki [1]: 19.5 µM | Ki [2]: 1.97 µM | rNPFF2 IA [3]: 83% NPFF | Ki [4]: 8.45 µM | Ki [5]: 31.8 µM
Structure (SMILES): CCc1ccc2nc(NC(=N)N)nc(C)c2c1 [Compound 1003A, N-(6-ethyl-4-methyl-2-quinazolinyl)guanidine]

rNPFF1 IA [8]: 19% NPFF | melting point: 195 to 198 °C (dec.) | rNPFF2 IA [3]: 81% NPFF
Structure (SMILES): Cc1nc(NC(=N)N)nc2cc(C(C)(C)C)ccc12 [Compound 1022A, N-[7-(tert-butyl)-4-methyl-2-quinazolinyl]guanidine]

rNPFF2 IA [3]: 35% NPFF | hNPFF2 IA [9]: 43% NPFF
Structure (SMILES): Cc1nc(NC(=N)N)nc2cc(-c3ccccc3)ccc12 [Compound 1023A, N-(4-methyl-7-phenyl-2-quinazolinyl)guanidine]

melting point: 295 to 298 °C (dec.) | rNPFF2 IA [3]: 74% NPFF
Structure (SMILES): Cc1nc(NC(=N)N)nc2cc3c(cc12)CCC3 [Compound 1038A, N-(4-methyl-7,8-dihydro-6H-cyclopenta[g]quinazolin-2-yl)guanidine]

rNPFF1 IA [8]: 51% NPFF | Ki [1]: 7.62 µM | Ki [2]: 0.713 µM | rNPFF2 IA [3]: 92% NPFF | Ki [4]: 3.33 µM | Ki [5]: 12.9 µM
Structure (SMILES): CCC(C)c1ccc2nc(NC(=N)N)nc(C)c2c1 (stereo not drawn) [Compound 2002A, N-(6-sec-butyl-4-methyl-2-quinazolinyl)guanidine]

Ki [1]: 12.8 µM | Ki [2]: 0.267 µM | rNPFF2 IA [3]: 84% NPFF | hNPFF2 IA [9]: 69% NPFF | Ki [4]: 1.4 µM | Ki [5]: 10.4 µM
Structure (SMILES): CCc1ccc2nc(NC(=N)N)cc(C)c2c1 [Compound 4002A, N-(6-ethyl-4-methyl-2-quinolinyl)guanidine]

rNPFF1 IA [8]: 41% NPFF | rNPFF2 IA [3]: 90% NPFF | hNPFF2 IA [9]: 75% NPFF
Structure (SMILES): CCCCCc1ccc2nc(NC(=N)N)cc(C)c2c1 [Compound 5002A, N-(4-methyl-6-pentyl-2-quinolinyl)guanidine]

rNPFF1 IA [8]: 27% NPFF | rNPFF2 IA [3]: 57% NPFF | hNPFF2 IA [9]: 45% NPFF
Structure (SMILES): CCCCCCc1ccc2nc(NC(=N)N)cc(C)c2c1 [Compound 5003A, N-(6-hexyl-4-methyl-2-quinolinyl)guanidine]
